ChEMBL document CHEMBL4837249, “Discovery of Potent Antiallergic Agents Based on an o-Aminopyridinyl Alkynyl Scaffold” (J Med Chem, 2021)

Key:
[1] = biological target: T1, Tyrosine-protein kinase Fgr (Homo sapiens, UniProt P09769); experiment: Inhibition of human recombinant FGR (456 to 770) at 500 nM by radiometric scintillation counting analysis relative to control
Target sequence in this assay (P09769 2-529 limits assumed): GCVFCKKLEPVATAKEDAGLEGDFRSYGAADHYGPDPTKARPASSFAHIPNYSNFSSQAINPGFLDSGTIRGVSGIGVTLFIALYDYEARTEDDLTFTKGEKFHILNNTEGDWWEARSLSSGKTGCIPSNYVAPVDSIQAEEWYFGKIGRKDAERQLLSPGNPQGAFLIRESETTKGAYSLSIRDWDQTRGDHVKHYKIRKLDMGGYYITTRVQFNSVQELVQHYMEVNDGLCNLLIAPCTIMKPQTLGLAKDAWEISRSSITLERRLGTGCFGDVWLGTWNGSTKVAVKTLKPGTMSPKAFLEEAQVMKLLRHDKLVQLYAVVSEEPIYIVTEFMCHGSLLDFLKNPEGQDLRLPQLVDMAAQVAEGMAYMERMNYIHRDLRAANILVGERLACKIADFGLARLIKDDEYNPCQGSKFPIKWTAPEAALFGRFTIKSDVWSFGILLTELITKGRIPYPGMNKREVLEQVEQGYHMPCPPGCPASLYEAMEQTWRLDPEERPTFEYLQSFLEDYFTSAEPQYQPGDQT

[2] = biological target: T2, Proto-oncogene tyrosine-protein kinase Src (Homo sapiens, UniProt P12931); experiment: Inhibition of human recombinant Src (1-530) at 50 nM by radiometric scintillation counting analysis relative to control
T2 sequence (P12931 2-536 limits assumed): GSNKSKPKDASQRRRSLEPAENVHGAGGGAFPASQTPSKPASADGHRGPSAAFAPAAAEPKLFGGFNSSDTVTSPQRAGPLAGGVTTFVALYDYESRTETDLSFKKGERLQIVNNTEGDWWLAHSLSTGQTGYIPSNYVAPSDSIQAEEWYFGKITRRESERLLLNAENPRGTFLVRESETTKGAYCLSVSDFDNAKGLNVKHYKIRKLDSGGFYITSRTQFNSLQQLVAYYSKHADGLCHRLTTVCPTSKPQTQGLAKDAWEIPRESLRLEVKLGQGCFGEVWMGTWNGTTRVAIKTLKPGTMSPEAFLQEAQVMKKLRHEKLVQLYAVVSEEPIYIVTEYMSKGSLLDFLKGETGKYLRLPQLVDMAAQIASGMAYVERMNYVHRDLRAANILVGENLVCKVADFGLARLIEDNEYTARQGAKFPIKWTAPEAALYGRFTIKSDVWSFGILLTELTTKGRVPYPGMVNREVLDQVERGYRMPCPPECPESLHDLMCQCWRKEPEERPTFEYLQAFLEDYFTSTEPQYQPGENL

[3] = biological target: Tyrosine-protein kinase Lck (Homo sapiens, UniProt P06239); experiment: Inhibition of human full length recombinant LCK at 50 nM by radiometric scintillation counting analysis relative to control
Sequence of Tyrosine-protein kinase Lck (P06239 2-509 limits assumed): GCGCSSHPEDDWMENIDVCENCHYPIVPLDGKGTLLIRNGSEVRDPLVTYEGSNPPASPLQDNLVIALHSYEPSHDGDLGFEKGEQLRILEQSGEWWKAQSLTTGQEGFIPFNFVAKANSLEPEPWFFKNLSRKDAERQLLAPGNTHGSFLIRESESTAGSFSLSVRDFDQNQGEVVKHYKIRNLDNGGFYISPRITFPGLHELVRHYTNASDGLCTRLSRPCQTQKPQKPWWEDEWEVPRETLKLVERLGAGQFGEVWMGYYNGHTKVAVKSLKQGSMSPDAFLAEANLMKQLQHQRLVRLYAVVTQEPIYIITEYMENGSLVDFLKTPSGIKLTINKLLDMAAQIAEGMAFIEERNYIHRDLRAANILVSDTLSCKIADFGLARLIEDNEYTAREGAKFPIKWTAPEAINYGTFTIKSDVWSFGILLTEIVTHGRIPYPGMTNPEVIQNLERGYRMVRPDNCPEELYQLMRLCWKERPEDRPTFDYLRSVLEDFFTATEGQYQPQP

[4] = biological target: Platelet-derived growth factor receptor beta (Homo sapiens) (UniProt P09619); experiment: Inhibition of human recombinant PDGFRbeta (557 to end) at 50 nM by radiometric scintillation counting analysis relative to control
Sequence of Platelet-derived growth factor receptor beta (Homo sapiens) (P09619 whole entry): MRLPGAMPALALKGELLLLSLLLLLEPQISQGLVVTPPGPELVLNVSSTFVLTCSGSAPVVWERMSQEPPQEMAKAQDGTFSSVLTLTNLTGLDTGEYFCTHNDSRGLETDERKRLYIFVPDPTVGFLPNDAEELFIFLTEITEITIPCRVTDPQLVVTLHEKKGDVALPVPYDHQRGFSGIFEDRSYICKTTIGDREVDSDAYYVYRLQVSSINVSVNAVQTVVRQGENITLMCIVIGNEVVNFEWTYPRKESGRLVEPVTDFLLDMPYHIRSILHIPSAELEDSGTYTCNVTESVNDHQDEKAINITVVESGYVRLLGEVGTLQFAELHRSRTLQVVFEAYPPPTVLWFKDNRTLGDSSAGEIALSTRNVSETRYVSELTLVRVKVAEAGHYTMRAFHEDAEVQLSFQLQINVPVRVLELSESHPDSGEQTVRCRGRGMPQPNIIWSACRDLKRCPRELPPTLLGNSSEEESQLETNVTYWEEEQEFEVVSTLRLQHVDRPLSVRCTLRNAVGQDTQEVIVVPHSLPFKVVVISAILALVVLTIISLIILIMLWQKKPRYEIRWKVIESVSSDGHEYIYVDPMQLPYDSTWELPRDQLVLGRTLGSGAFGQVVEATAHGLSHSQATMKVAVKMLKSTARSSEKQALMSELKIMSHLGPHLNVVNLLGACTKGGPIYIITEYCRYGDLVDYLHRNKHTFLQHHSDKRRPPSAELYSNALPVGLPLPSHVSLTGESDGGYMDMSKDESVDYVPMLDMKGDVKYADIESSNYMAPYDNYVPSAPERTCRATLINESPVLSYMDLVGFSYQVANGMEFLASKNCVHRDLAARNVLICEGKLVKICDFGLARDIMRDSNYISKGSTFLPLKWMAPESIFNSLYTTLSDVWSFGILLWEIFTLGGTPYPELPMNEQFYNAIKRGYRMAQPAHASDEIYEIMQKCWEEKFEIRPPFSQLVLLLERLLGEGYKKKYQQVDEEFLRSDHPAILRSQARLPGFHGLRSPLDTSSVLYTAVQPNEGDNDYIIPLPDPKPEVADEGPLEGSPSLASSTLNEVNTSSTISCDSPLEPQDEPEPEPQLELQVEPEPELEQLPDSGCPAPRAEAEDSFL

[5] = biological target: Tyrosine-protein kinase CSK (Homo sapiens, UniProt P41240); experiment: Inhibition of human full length recombinant CSK at 50 nM by radiometric scintillation counting analysis relative to control
Sequence of Tyrosine-protein kinase CSK (P41240 2-450 limits assumed): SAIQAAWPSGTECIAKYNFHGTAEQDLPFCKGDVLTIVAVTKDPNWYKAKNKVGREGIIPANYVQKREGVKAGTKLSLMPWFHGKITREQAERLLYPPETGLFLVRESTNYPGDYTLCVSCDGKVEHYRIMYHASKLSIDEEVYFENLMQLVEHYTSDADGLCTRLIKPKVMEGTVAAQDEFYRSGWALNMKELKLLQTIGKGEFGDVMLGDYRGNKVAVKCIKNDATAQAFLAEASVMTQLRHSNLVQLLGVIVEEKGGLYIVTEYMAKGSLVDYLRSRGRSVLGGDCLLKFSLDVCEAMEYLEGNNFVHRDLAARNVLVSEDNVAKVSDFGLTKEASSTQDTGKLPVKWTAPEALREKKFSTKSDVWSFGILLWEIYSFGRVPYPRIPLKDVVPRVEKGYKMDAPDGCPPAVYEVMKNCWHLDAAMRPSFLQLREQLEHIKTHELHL

RBL-2H3 = experiment: Antiallergic activity against anti-DNP-IgE sensitized rat RBL-2H3 cells assessed as […] of degranulation by measuring beta-hexosaminidase release using P-nitrophenyl-N-acetyl-D-glucosamide as substrate at 1 uM measured after 1 hr by microplate reader relative to control; assay type: functional
[6] = biological target: T3, Tyrosine-protein kinase Yes (Homo sapiens, UniProt P07947); experiment: Inhibition of human full length recombinant Yes at 5 nM by radiometric scintillation counting analysis relative to control
[7] = biological target: T4, Tyrosine-protein kinase Srms (Homo sapiens, UniProt Q9H3Y6); experiment: Inhibition of human SRMS at 500 nM by radiometric scintillation counting analysis relative to control
T4 sequence (Q9H3Y6 whole entry): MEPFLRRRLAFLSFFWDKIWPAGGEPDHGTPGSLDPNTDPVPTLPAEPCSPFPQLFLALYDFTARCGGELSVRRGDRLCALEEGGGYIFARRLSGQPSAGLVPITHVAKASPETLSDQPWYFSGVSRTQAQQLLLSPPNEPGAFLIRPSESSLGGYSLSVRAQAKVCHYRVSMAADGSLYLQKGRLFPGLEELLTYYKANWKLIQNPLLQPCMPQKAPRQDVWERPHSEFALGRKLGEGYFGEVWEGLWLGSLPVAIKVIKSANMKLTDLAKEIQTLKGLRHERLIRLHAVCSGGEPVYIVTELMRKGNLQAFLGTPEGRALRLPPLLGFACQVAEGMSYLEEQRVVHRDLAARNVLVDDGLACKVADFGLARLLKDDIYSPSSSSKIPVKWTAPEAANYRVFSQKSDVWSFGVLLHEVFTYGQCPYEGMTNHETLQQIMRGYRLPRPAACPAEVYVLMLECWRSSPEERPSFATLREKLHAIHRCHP

[8] = biological target: T5, Cytoplasmic tyrosine-protein kinase BMX (Homo sapiens) (UniProt P51813); experiment: Inhibition of human full length recombinant Bmx at 5 nM by radiometric scintillation counting analysis relative to control
T5 sequence (whole entry): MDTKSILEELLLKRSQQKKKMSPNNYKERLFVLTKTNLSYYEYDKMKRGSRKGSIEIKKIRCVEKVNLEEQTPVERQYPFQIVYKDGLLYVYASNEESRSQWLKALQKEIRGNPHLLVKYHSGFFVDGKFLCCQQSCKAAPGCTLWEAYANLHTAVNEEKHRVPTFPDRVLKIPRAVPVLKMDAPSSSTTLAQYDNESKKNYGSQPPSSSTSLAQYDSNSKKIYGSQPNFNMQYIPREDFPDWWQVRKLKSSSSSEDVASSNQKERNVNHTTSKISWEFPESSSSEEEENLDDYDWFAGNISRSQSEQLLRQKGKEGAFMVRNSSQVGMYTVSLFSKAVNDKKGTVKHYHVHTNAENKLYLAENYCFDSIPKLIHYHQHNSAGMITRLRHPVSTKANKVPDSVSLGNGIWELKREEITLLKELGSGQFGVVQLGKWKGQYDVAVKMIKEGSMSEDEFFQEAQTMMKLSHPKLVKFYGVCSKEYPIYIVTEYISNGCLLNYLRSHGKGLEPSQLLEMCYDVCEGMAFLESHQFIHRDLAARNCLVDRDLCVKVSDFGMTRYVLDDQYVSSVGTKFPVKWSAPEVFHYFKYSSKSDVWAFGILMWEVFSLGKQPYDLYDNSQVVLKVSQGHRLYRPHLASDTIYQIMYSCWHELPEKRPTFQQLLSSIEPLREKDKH

[9] = biological target: T6, Tyrosine-protein kinase TXK (Homo sapiens) (UniProt P42681); experiment: Inhibition of human recombinant […] (256 to end) at 5 nM by radiometric scintillation counting analysis relative to control
T6 sequence (whole entry): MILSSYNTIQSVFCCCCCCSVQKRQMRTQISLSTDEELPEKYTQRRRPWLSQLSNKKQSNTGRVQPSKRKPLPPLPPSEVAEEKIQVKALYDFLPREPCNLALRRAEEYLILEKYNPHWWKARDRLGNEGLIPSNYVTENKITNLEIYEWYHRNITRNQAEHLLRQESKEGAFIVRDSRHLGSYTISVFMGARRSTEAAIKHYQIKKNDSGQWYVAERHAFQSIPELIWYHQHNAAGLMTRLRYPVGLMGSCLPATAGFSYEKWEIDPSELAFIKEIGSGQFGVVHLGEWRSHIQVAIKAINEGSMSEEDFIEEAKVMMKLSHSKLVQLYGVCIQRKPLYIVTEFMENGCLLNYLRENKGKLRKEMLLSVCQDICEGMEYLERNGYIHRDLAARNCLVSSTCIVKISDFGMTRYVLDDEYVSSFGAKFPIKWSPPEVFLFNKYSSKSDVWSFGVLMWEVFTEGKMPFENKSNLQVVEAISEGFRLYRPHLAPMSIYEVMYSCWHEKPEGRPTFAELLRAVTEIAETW

[10] = biological target: Tyrosine-protein kinase Fyn (Homo sapiens, UniProt P06241); experiment: Inhibition of human recombinant Fyn (218 to end) at 50 nM incubated for 15 mins relative to control
Sequence of Tyrosine-protein kinase Fyn (P06241 2-537 limits assumed): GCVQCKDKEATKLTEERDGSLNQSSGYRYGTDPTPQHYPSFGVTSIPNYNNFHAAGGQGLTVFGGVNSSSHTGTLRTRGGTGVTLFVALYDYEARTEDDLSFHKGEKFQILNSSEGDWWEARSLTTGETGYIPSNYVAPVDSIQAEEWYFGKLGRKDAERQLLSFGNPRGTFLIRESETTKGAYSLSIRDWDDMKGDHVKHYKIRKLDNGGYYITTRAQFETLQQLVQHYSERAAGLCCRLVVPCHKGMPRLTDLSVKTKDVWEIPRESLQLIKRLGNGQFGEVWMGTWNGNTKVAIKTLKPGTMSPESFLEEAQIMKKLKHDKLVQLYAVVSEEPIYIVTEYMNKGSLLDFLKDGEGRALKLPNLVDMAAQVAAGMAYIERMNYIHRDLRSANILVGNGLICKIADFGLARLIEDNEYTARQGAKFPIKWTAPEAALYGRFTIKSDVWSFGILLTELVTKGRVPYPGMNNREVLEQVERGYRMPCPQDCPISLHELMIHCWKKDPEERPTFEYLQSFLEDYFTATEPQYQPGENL

[11] = biological target: Tyrosine-protein kinase BTK (Homo sapiens) (UniProt Q06187); experiment: Inhibition of human full length recombinant BTK at 50 nM by radiometric scintillation counting analysis relative to control
[12] = biological target: Tyrosine-protein kinase SYK (Homo sapiens) (UniProt P43405); experiment: Inhibition of human full length recombinant Syk at 50 nM by radiometric scintillation counting analysis relative to control
[13] = biological target: Tyrosine-protein kinase Blk (Homo sapiens, UniProt P51451); experiment: Inhibition of human full length recombinant BLK by radiometric scintillation counting analysis
[14] = biological target: T4, Tyrosine-protein kinase Srms; experiment: Inhibition of human SRMS by radiometric scintillation counting analysis
[15] = biological target: T2, Proto-oncogene tyrosine-protein kinase Src; experiment: Inhibition of human recombinant Src (1-530) by radiometric scintillation counting analysis
[16] = biological target: T1, Tyrosine-protein kinase Fgr; experiment: Inhibition of human recombinant FGR (456 to 770) radiometric scintillation counting analysis
Target sequence in this assay (P09769 whole entry): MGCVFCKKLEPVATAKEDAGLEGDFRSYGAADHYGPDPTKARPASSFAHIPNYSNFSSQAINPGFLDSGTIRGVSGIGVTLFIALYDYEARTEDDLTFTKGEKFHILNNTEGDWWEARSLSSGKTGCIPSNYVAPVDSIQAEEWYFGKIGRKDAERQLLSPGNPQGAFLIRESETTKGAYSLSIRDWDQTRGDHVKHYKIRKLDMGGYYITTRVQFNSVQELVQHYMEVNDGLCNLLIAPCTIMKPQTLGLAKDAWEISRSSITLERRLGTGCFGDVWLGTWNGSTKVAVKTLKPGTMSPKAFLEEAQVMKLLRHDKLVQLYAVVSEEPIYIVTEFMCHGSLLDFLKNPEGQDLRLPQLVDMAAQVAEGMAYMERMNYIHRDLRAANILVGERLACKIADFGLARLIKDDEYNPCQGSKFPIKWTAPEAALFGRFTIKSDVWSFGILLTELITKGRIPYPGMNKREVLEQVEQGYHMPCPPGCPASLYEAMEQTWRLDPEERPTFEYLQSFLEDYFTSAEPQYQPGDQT

[17] = biological target: Macrophage colony-stimulating factor 1 receptor (Homo sapiens, UniProt P07333); experiment: Inhibition of human recombinant CSF1R using ATP/Ulight-TK peptide at 50 nM incubated for 15 mins
[18] = biological target: Tyrosine-protein kinase Lyn (Homo sapiens, UniProt P07948); experiment: Inhibition of human full length recombinant LYN by radiometric scintillation counting analysis
[19] = biological target: T3, Tyrosine-protein kinase Yes; experiment: Inhibition of human full length recombinant Yes by radiometric scintillation counting analysis
TXK = TXK (Homo sapiens, UniProt P42681); experiment: Inhibition of human recombinant Txk (256 to end) by radiometric scintillation counting analysis
[20] = biological target: RAC-alpha serine/threonine-protein kinase (Homo sapiens) (UniProt P31749); experiment: Inhibition of human recombinant PKBalpha at 5 nM radiometric scintillation counting analysis relative to control

inhibition [1] [%] | inhibition [2] [%] | inhibition [3] [%] | inhibition [4] [%] | inhibition [5] [%] | inhibition [6] [%] | inhibition [7] [%] | inhibition [8] [%] | inhibition [9] [%] | inhibition [10] [%] | Structure (SMILES) | inhibition at 1 µM (RBL-2H3) [%] | inhibition [11] [%] | inhibition [12] [%] | IC50 [13] [nM] | IC50 [14] [nM] | IC50 [15] [nM] | IC50 [16] [nM] | IC50 [17] [nM] | IC50 [18] [nM] | IC50 [19] [nM] | other results
77 | 95 | 98 | 13 | 4 | 0 | 54 | -6 | 12 | 81 | Cc1ccc(C(=O)Nc2ccc(OC(F)(F)F)cc2)cc1C#Cc1cc(-c2cnn(C)c2)cnc1N | 144 |  |  |  |  |  |  |  |  |  | 
46 | 49 | 59 | 54 | 28 | -7 | 13 | 21 | 2 | 43 | Cc1ccc(C(=O)Nc2ccc(Cl)cc2Cl)cc1C#Cc1cc(-c2cnn(C)c2)cnc1N |  | 8 | -3 | > 1000 | > 1000 | 163 | > 1000 | 11 | 7 | > 1000 | IC50 (TXK): > 1000 nM; inhibition [20]: 4%

Structure (SMILES) | inhibition [1] [%] | inhibition [2] [%] | inhibition [3] [%] | inhibition [4] [%] | inhibition [5] [%] | inhibition [6] [%] | inhibition [7] [%] | inhibition [8] [%] | inhibition [9] [%] | inhibition [10] [%] | inhibition at 1 µM (RBL-2H3) [%] | inhibition [11] [%] | inhibition [12] [%] | IC50 [13] [nM] | IC50 [14] [nM] | IC50 [15] [nM] | IC50 [16] [nM] | IC50 [17] [nM] | IC50 [18] [nM] | IC50 [19] [nM] | other results
Cc1ccc(C(=O)Nc2cc(C(F)(F)F)cc(C(F)(F)F)c2)cc1C#Cc1cc(-c2cnn(C)c2)cnc1N | 101 | 98 | 60 | 6 | 34 |  | 86 | 16 | 17 | 55 | 144 | 27 | -1 | 56 | 114 | 12 | 41 | 48 | 9 | 95 | IC50 (TXK): 185 nM; inhibition [20]: -5%
